Experimental data as given in PubChem BioAssay (NCI).
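Assay format: 96-well plates, 48-hour exposure. TGI denotes the concentration required for complete inhibition of growth.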

System: SN12K1 renal
Assay: NCI anticancer screen, dose series, 48 h

Row | Structure (SMILES) | TGI [µM]
1 | O=NN(CCCl)C(=O)NC1CCCCC1 | 101
2 | Nc1nc(=S)c2[nH]cnc2[nH]1 | 11.2
